# Experimental data published in PubChem BioAssay (NCI).
#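 Results reflect a 48-hour exposure of cells in 96-well plates to compound at five concentrations. GI50 marks 50% less growth. TGI is the concentration that stops growth completely.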
# Tests used:
# Assay in all cases: NCI-60 cell line screen, 48 h
# HT29 colon = tested on: HT29 colon
# HL-60(TB) leukemia = tested on: HL-60(TB) leukemia
# EKVX NSCLC = tested on: EKVX NSCLC
# LOX IMVI melanoma = tested on: LOX IMVI melanoma
# NCI-H522 lung = tested on: NCI-H522 lung
# PC-3 prostate = tested on: PC-3 prostate
# DU-145 prostate = tested on: DU-145 prostate
# RXF 393 renal = tested on: RXF 393 renal
# HCT-15 colon = tested on: HCT-15 colon
# HCT-116 colon = tested on: HCT-116 colon
Compound,TGI (HT29 colon) [µM],TGI (HL-60(TB) leukemia) [µM],TGI (EKVX NSCLC) [µM],TGI (LOX IMVI melanoma) [µM],TGI (NCI-H522 lung) [µM],TGI (PC-3 prostate) [µM],TGI (DU-145 prostate) [µM],TGI (RXF 393 renal) [µM],TGI (HCT-15 colon) [µM],TGI (HCT-116 colon) [µM],GI50 (HT29 colon) [µM],GI50 (HL-60(TB) leukemia) [µM],GI50 (EKVX NSCLC) [µM],GI50 (LOX IMVI melanoma) [µM],GI50 (NCI-H522 lung) [µM],GI50 (PC-3 prostate) [µM],GI50 (DU-145 prostate) [µM],GI50 (RXF 393 renal) [µM],GI50 (HCT-15 colon) [µM],GI50 (HCT-116 colon) [µM]
CCOC(=O)c1cc(I)c(-c2cc(C)no2)n1C,> 100,74.5,> 100,> 100,> 100,> 100,> 100,42.8,> 100,> 100,–,–,–,–,–,–,–,–,–,–
O=C(CCCCCCCCC(=O)N1C(=O)CC(=O)N(c2ccccc2)C1=S)N1C(=O)CC(=O)N(c2ccccc2)C1=S,> 100,–,> 100,> 100,> 100,> 100,> 100,> 100,> 100,> 100,–,–,–,–,–,–,–,–,–,–
COc1cc(C2=NNC(=O)c3ccccc3N2c2nc(-c3cccs3)nc3ccc(Br)cc23)cc(OC)c1OC,35.9,–,86.4,–,> 100,> 100,87.9,–,24,26.9,–,–,–,–,–,–,–,–,–,–
C=CCN1C(=O)/C(=C/c2ccco2)N=C1SC1OC(COC(C)=O)C(OC(C)=O)C(OC(C)=O)C1OC(C)=O (configuration not stated),–,53.4,> 100,> 100,51.7,> 100,> 100,> 100,> 100,–,–,–,–,–,–,–,–,–,–,–
C[n+]1c(-c2ccc(/C=N/Nc3ccnc(N/N=C/c4ccc(-c5cn6ccsc6[n+]5C)cc4)n3)cc2)cn2ccsc21,> 100,–,45.7,–,> 100,79.9,82,51.9,> 100,–,–,–,–,–,–,–,–,–,–,–
O=C1C=CC(=C(c2ccc(O)cc2)c2ccc(O)cc2)C=C1,38.6,13.4,28.6,22.9,21.8,–,–,16.9,28.6,22.7,–,–,–,–,–,–,–,–,–,–
CCOP(=O)(OCC)C(c1ccccc1)N(C(=O)NC(F)(F)F)c1cccc(F)c1 (configuration not stated),> 100,> 100,> 100,> 100,> 100,> 100,> 100,> 100,> 100,> 100,–,–,–,–,–,–,–,–,–,–
Nc1ccccc1.[C-]#[O+].[C-]#[O+].[C-]#[O+].[C-]#[O+].[C-]#[O+].[Cr],> 10,6.94,> 10,8.56,> 10,> 10,> 10,> 10,> 10,> 10,> 10,1.68,9.33,3.15,2.94,5.87,> 10,3.22,4.99,2.9
O=C1Nc2ccccc2Cn2c1cc1oc(-c3ccccc3)cc12,> 100,> 100,> 100,> 100,> 100,> 100,> 100,53,> 100,–,–,–,–,–,–,–,–,–,–,–
O=C(CCCCCC(=O)N1CC(CCl)c2ccc([N+](=O)[O-])cc21)N1CC(CCl)c2ccc([N+](=O)[O-])cc21 (configuration not stated),–,> 100,> 100,> 100,> 100,> 100,> 100,> 100,> 100,> 100,–,–,–,–,–,–,–,–,–,–
Cc1cn(CCCCCCC2=NCCCN2)c(=O)[nH]c1=O,> 100,–,> 100,> 100,> 100,> 100,> 100,> 100,> 100,> 100,–,–,–,–,–,–,–,–,–,–
CC(=O)OCc1cncn1S(=O)(=O)c1ccc(C)cc1,> 100,50.2,> 100,> 100,> 100,> 100,> 100,> 100,> 100,> 100,–,–,–,–,–,–,–,–,–,–
CC(=O)c1ccccc1NCC(=O)Nn1cnc2ccc(S(=O)(=O)Nc3ccccc3C(C)=O)cc2c1=O,> 100,> 100,> 100,> 100,> 100,> 100,> 100,–,> 100,> 100,–,–,–,–,–,–,–,–,–,–
O=c1[nH]c(=O)n(C2CC(O)C(CO)O2)cc1NN=NCCCc1ccccc1 (configuration not stated),> 100,> 100,> 100,> 100,–,> 100,> 100,> 100,> 100,> 100,–,–,–,–,–,–,–,–,–,–
COC(=O)C1=C(OC(=O)/C=C/c2ccccc2)C(C(=O)OC)[C@@]2(O)[C@@H](C(=O)OC)[C@H](C)C[C@@H]1[C@@H]2C(=O)OC (some centres not stated),> 100,> 100,65.2,93.2,21,> 100,> 100,34.1,37.6,88.4,–,–,–,–,–,–,–,–,–,–
CC(C)CCCC(C)[C@H]1CC[C@H]2[C@@H]3CC[C@H]4C[C@@H](CCC=C(c5cc(Cl)c(O)c(C(=O)OC(C)C)c5)c5cc(Cl)c(O)c(C(=O)OC(C)C)c5)CC[C@]4(C)[C@H]3CC[C@]12C (some centres not stated),> 50,> 50,> 50,> 50,–,> 50,> 50,> 50,> 50,> 50,–,–,–,–,–,–,–,–,–,–
O=c1c2c3c(sc2nc2n1N=C(c1ccc(Cl)cc1)CS2)CCCC3,> 100,> 100,> 100,> 100,> 100,> 100,> 100,> 100,> 100,> 100,–,–,–,–,–,–,–,–,–,–
CN(C)c1ccc(C=C2C(=O)N(c3ccccc3)N(c3ccccc3)C2=O)cc1,> 100,–,> 100,> 100,> 100,> 100,> 100,–,> 100,> 100,–,–,–,–,–,–,–,–,–,–
CCOC(=O)c1c(-c2ccc(Cl)cc2)c(C#N)c(=S)n(C2OC(COC(C)=O)C(OC(C)=O)C(OC(C)=O)C2OC(C)=O)c1-c1ccccc1 (configuration not stated),> 100,> 100,–,> 100,–,> 100,> 100,> 100,> 100,> 100,–,–,–,–,–,–,–,–,–,–
Brc1ccc2c3c1[C@H]1O[C@H]1c1cccc(c1-3)[C@@H]1O[C@H]21,34.7,–,36.5,9.39,27.6,33.4,25.6,–,49.1,37.8,–,–,–,–,–,–,–,–,–,–
